Data as given in PMC6381276 (mBio, 2019).

Target: McpN (PA2788) chemoreceptor (Pseudomonas aeruginosa, UniProt Q9I055)
Test: biochemical

McpN (PA2788) chemoreceptor, sequence (Q9I055 44-179): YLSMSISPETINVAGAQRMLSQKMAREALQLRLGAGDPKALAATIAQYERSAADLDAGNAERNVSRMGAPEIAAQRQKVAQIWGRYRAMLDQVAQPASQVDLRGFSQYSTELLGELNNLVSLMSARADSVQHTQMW

O=[N+]([O-])O [nitrate]
Kd: 47 ± 8 µM
